Test results: PubChem BioAssay (NCI)
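96-well plates; 48 h exposure; 5 concentrations. Endpoints by linear interpolation between flanking doses. Not reached: highest tested concentration assigned. Abbreviation: GI50, concentration required for 50% inhibition of growth. At the TGI there is no net growth.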

Legend:
Experiment in all cases: DTP human tumour cell line panel, 48 h
786-0 renal = system: 786-0 renal
NCI-H226 lung = system: NCI-H226 lung
OVCAR-5 ovarian = system: OVCAR-5 ovarian
OVCAR-3 ovarian = system: OVCAR-3 ovarian
HCC-2998 colon = system: HCC-2998 colon
K-562 leukemia = system: K-562 leukemia
EKVX NSCLC = system: EKVX NSCLC
MDA-MB-435 = system: MDA-MB-435
SK-MEL-5 melanoma = system: SK-MEL-5 melanoma
SNB-75 CNS = system: SNB-75 CNS
SN12C renal = system: SN12C renal
UACC-257 melanoma = system: UACC-257 melanoma
PC-3 prostate = system: PC-3 prostate
SK-MEL-28 melanoma = system: SK-MEL-28 melanoma
T-47D breast = system: T-47D breast
RXF 393 renal = system: RXF 393 renal
HCT-116 colon = system: HCT-116 colon
NCI-H522 lung = system: NCI-H522 lung
HL-60(TB) leukemia = system: HL-60(TB) leukemia
MDA-MB-231 breast = system: MDA-MB-231 breast
SW-620 colon = system: SW-620 colon
U251 CNS = system: U251 CNS
RPMI-8226 leukemia = system: RPMI-8226 leukemia
SNB-19 CNS = system: SNB-19 CNS
NCI-H23 lung = system: NCI-H23 lung
TK-10 renal = system: TK-10 renal
A498 renal = system: A498 renal
HOP-62 NSCLC = system: HOP-62 NSCLC
SF-268 CNS = system: SF-268 CNS
CAKI-1 renal = system: CAKI-1 renal
NCI-H460 lung = system: NCI-H460 lung
SF-295 CNS = system: SF-295 CNS
DU-145 prostate = system: DU-145 prostate
IGROV1 ovarian = system: IGROV1 ovarian
OVCAR-8 ovarian = system: OVCAR-8 ovarian
UACC-62 melanoma = system: UACC-62 melanoma
HS 578T breast = system: HS 578T breast
KM12 colon = system: KM12 colon
UO-31 renal = system: UO-31 renal
OVCAR-4 ovarian = system: OVCAR-4 ovarian
MOLT-4 leukemia = system: MOLT-4 leukemia
SR leukemia = system: SR leukemia
SK-MEL-2 melanoma = system: SK-MEL-2 melanoma
SK-OV-3 ovarian = system: SK-OV-3 ovarian
HCT-15 colon = system: HCT-15 colon
LOX IMVI melanoma = system: LOX IMVI melanoma
ACHN renal = system: ACHN renal
A549 NSCLC = system: A549 NSCLC
SF-539 CNS = system: SF-539 CNS
BT-549 breast = system: BT-549 breast
HOP-92 NSCLC = system: HOP-92 NSCLC
M14 melanoma = system: M14 melanoma
MCF7 breast = system: MCF7 breast
HT29 colon = system: HT29 colon
COLO 205 colon = system: COLO 205 colon
NCI/ADR-RES ovarian = system: NCI/ADR-RES ovarian
MALME-3M melanoma = system: MALME-3M melanoma
CCRF-CEM leukemia = system: CCRF-CEM leukemia

## COc1ccc(CCCNC(=O)c2cc(OC)c(OC)cc2CCO)cc1OC
786-0 renal
  TGI: > 100 µM
NCI-H226 lung
  TGI: > 100 µM
OVCAR-5 ovarian
  TGI: > 100 µM
OVCAR-3 ovarian
  TGI: > 100 µM
HCC-2998 colon
  TGI: > 100 µM
K-562 leukemia
  TGI: > 100 µM
EKVX NSCLC
  TGI: > 100 µM
MDA-MB-435
  TGI: > 100 µM
SK-MEL-5 melanoma
  TGI: > 100 µM
SNB-75 CNS
  TGI: > 100 µM
SN12C renal
  TGI: > 100 µM
UACC-257 melanoma
  TGI: > 100 µM
PC-3 prostate
  TGI: > 100 µM
SK-MEL-28 melanoma
  TGI: > 100 µM
T-47D breast
  TGI: > 100 µM
RXF 393 renal
  TGI: > 100 µM
HCT-116 colon
  TGI: > 100 µM
NCI-H522 lung
  TGI: > 100 µM
HL-60(TB) leukemia
  TGI: > 100 µM
MDA-MB-231 breast
  TGI: > 100 µM
SW-620 colon
  TGI: > 100 µM
U251 CNS
  TGI: > 100 µM
RPMI-8226 leukemia
  TGI: > 100 µM
SNB-19 CNS
  TGI: > 100 µM
NCI-H23 lung
  TGI: > 100 µM
TK-10 renal
  TGI: > 100 µM
A498 renal
  TGI: > 100 µM
HOP-62 NSCLC
  TGI: > 100 µM
SF-268 CNS
  TGI: > 100 µM
CAKI-1 renal
  TGI: > 100 µM
NCI-H460 lung
  TGI: > 100 µM
SF-295 CNS
  TGI: > 100 µM
DU-145 prostate
  TGI: > 100 µM
IGROV1 ovarian
  TGI: > 100 µM
OVCAR-8 ovarian
  TGI: > 100 µM
UACC-62 melanoma
  TGI: > 100 µM
HS 578T breast
  TGI: > 100 µM
KM12 colon
  TGI: > 100 µM
UO-31 renal
  TGI: > 100 µM
OVCAR-4 ovarian
  TGI: > 100 µM
MOLT-4 leukemia
  TGI: > 100 µM
SR leukemia
  TGI: > 100 µM
SK-MEL-2 melanoma
  TGI: > 100 µM
SK-OV-3 ovarian
  TGI: > 100 µM
HCT-15 colon
  TGI: > 100 µM
LOX IMVI melanoma
  TGI: > 100 µM
ACHN renal
  TGI: > 100 µM
A549 NSCLC
  TGI: > 100 µM
SF-539 CNS
  TGI: > 100 µM
BT-549 breast
  TGI: > 100 µM
HOP-92 NSCLC
  TGI: > 100 µM
M14 melanoma
  TGI: > 100 µM
MCF7 breast
  TGI: > 100 µM
HT29 colon
  TGI: > 100 µM
COLO 205 colon
  TGI: > 100 µM
NCI/ADR-RES ovarian
  TGI: > 100 µM

## O=Nc1ccc(NO)c2ccccc12
786-0 renal
  GI50: 18.6 µM
  TGI: 33.1 µM
NCI-H226 lung
  GI50: 16.8 µM
  TGI: 38.4 µM
OVCAR-5 ovarian
  GI50: 18.6 µM
  TGI: 35.5 µM
OVCAR-3 ovarian
  GI50: 2.37 µM
  TGI: 12 µM
HCC-2998 colon
  GI50: 17.4 µM
  TGI: 31.7 µM
K-562 leukemia
  GI50: 16.1 µM
  TGI: 44.6 µM
MDA-MB-435
  GI50: 1.94 µM
  TGI: 3.57 µM
SK-MEL-5 melanoma
  GI50: 11.7 µM
  TGI: 24.2 µM
SNB-75 CNS
  GI50: 18.3 µM
  TGI: 32.4 µM
MALME-3M melanoma
  GI50: 5.85 µM
  TGI: 19 µM
SN12C renal
  GI50: 2.68 µM
  TGI: 11 µM
UACC-257 melanoma
  GI50: 2.31 µM
  TGI: 5.39 µM
PC-3 prostate
  GI50: 2.44 µM
  TGI: 13.2 µM
SK-MEL-28 melanoma
  GI50: 15.1 µM
  TGI: 28.6 µM
T-47D breast
  GI50: 3.67 µM
  TGI: 21.4 µM
RXF 393 renal
  GI50: 11.8 µM
  TGI: 24.2 µM
HCT-116 colon
  GI50: 3.15 µM
  TGI: 12.7 µM
NCI-H522 lung
  GI50: 13.2 µM
  TGI: 27 µM
HL-60(TB) leukemia
  GI50: 3.14 µM
  TGI: 7.56 µM
MDA-MB-231 breast
  GI50: 10.3 µM
  TGI: 47.5 µM
SW-620 colon
  GI50: 3.87 µM
  TGI: 21.5 µM
U251 CNS
  GI50: 13.1 µM
  TGI: 26.1 µM
RPMI-8226 leukemia
  GI50: 13.3 µM
  TGI: 56.2 µM
CCRF-CEM leukemia
  GI50: 8.04 µM
  TGI: 58.9 µM
SNB-19 CNS
  GI50: 15.1 µM
  TGI: 28.5 µM
NCI-H23 lung
  GI50: 7.03 µM
  TGI: 23.5 µM
TK-10 renal
  GI50: 27.6 µM
  TGI: 42.5 µM
A498 renal
  GI50: 18.9 µM
  TGI: 36 µM
HOP-62 NSCLC
  GI50: 14.6 µM
  TGI: 27.9 µM
SF-268 CNS
  GI50: 13.8 µM
  TGI: 27.8 µM
CAKI-1 renal
  GI50: 12.2 µM
  TGI: 25.2 µM
NCI-H460 lung
  GI50: 21.7 µM
  TGI: 51.3 µM
SF-295 CNS
  GI50: 14.8 µM
  TGI: 28.6 µM
DU-145 prostate
  GI50: 17.4 µM
  TGI: 31.5 µM
IGROV1 ovarian
  GI50: 3.62 µM
  TGI: 16.4 µM
OVCAR-8 ovarian
  GI50: 3.24 µM
  TGI: 14.6 µM
UACC-62 melanoma
  GI50: 4 µM
  TGI: 16.4 µM
HS 578T breast
  GI50: 28.3 µM
  TGI: > 100 µM
KM12 colon
  GI50: 15.6 µM
  TGI: 30.4 µM
UO-31 renal
  GI50: 13.2 µM
  TGI: 26.4 µM
OVCAR-4 ovarian
  GI50: 3.33 µM
  TGI: 16.2 µM
MOLT-4 leukemia
  GI50: 26.6 µM
  TGI: 88.1 µM
SR leukemia
  GI50: 16.3 µM
  TGI: 62 µM
SK-MEL-2 melanoma
  GI50: 18.3 µM
  TGI: 34.4 µM
SK-OV-3 ovarian
  GI50: 19.1 µM
  TGI: 35.6 µM
HCT-15 colon
  GI50: 14.9 µM
  TGI: 31.7 µM
LOX IMVI melanoma
  GI50: 2.78 µM
  TGI: 12.1 µM
ACHN renal
  GI50: 12.6 µM
  TGI: 25.9 µM
A549 NSCLC
  GI50: 18.3 µM
  TGI: 38.7 µM
SF-539 CNS
  GI50: 17.1 µM
  TGI: 31.1 µM
BT-549 breast
  GI50: 15.7 µM
  TGI: 29.4 µM
M14 melanoma
  GI50: 16.5 µM
  TGI: 31.3 µM
MCF7 breast
  GI50: 10.5 µM
  TGI: 31.3 µM
HT29 colon
  GI50: 5.96 µM
  TGI: 24.7 µM
COLO 205 colon
  GI50: 14.7 µM
  TGI: 29.3 µM
NCI/ADR-RES ovarian
  GI50: 2.92 µM
  TGI: 15.8 µM
